Like-named read-outs stand apart in the source and are kept apart here.

One data set concerns the target T1, Motilin Receptor (Homo sapiens, UniProt O43193).
T1 construct: host or cells: Ca2+ optimized hematopoietic cell lines (rat)
Description: Ca2+ assay (FLIPR) for the GPCR motilin receptor, agonist and antagonist mode. The class given is cell-based. The following applies: antagonist mode, at 10 μM. The protocol: Ca^2+ Assays for the GPCRs Motilin Receptor, Prostaglandin F (FP) Receptor, 5-hydroxytryptamine 2B (5-HT2B) Receptor, and Purinoreceptor P2Y1
Assays were performed using on a FLIPR^TETRA fluorometric imaging plate reader (Molecular Devices) with ScreenWorks Version 2 (Molecular Devices) as device operating and data analysis software.
Dose dependent agonist and antagonist activities were determined. Percentage activation and percentage inhibition values were determined.
Percentage activation was determined upon initial addition of the sample compounds followed by 10 minutes incubation at 25° C. Following compound incubation, reference agonists were added at EC80 to determine percentage inhibition.
Reference agonists were purchased from reputable commercial vendors and prepared according to each ligand's specifications. All handling of ligands were done to ensure proper control throughout the experiments.
Example compounds were weighed on a Microbalance (Mettler MX5) and dissolved in 100% DMSO to a final concentration of 2.5 mM and subsequently diluted into the assay buffer.
The Assay buffer was a supplemented HBSS (Hank's Balanced Salt Solution). HBSS was supplemented with 20 mM HEPES (4-(2-hydroxyethyl)-piperazin-1-ethansulfonic acid) and 2.5 mM Probenecid (Sigma P8761).
GPCR assays were performed using Ca^2+ optimized hematopoietic cell lines (rat) with cultures never exceeding 90% confluency. […] After seeding, the assay plates were incubated for forty-five (45) minutes at room temperature. After room temperature incubation, the assay plates were incubated at 37° C. 5% CO2 for 24 hours prior to assaying.
All GPCR assays were performed using Fluo-8 Ca^2+ dye. Ca^2+ dye was prepared at 1× dye concentration in GPCR assay buffer. After 24 hours of incubation, cells were washed with GPCR assay buffer, and then Ca^2+-dye (100 μL/well) was added.
The plates were incubated for 90 minutes at 30° C. 5% CO2 prior to FLIPR assay.
Compound plates were prepared to add 50 μL/well during the agonist assay mode. During the FLIPR assay, 50 μL/well from the compound plate was diluted 3-fold into the existing 100 μL/well from the dye loading step. Therefore all compounds were prepared as 3× the final concentration desired in the assay.
After completion of the first single addition assay run, assay plate was removed from the FLIPR Tetra and placed at 25° C. for seven (7) minutes before antagonist assay.
Using the EC80 values determined during the agonist assay, all pre-incubated sample compound and reference antagonist (if applicable) wells were stimulated at the EC80 of the reference agonist. As reference ligands for the first three assays their obvious natural ligands motilin, prostaglandin F2α, and serotonin (5-HT, 5-Hydroxytryptamine) were used; and for the P2Y1 assay 2MeSATP (2-methyl-thio-adeno-sine 5′-triphosphate, i.e. (2R,3S,4R)-5-(6-amino-2-methylsulfanyl-purin-9-yl)-3,4-dihydroxy-tetrahydrofuran-2-yl]methyl (hydroxy-phosphonooxy-phosphoryl)hydrogen phosphate) was applied.
After the addition of the reference agonist fluorescence was monitored for 180 sec using FLIPR Tetra.
Data Analysis and Results:
From the FLIPR data, with negative control correction enabled, the maximum statistic for each well was exported and percentage activation relative to Emax control was calculated.

Data set [1] is described as follows: in vitro. Format: in vitro ADME, human. As to conditions: human, plasma, 10 µM.
The nature of data set [2]: Metabolic stability assay, CD-1 mouse microsomes. Format: in vitro ADME. As to conditions: both, CD-1, mouse, microsomes, 10 µM.
The nature of data set [3]: Metabolic stability assay, human microsomes. Format: in vitro ADME. The following applies: both, human, microsomes, 10 µM.
Data set [4] can be described thus: in vitro. The class given is in vitro ADME, mouse. The following applies: both, CD-1, mouse, plasma, 10 µM.
Data set [5] in a line: Metabolic stability assay, rat microsomes (values in parentheses). Format: in vitro ADME. The following applies: value in parentheses.
Data set [6] is described as follows: Pharmacokinetic study after single i.v. and p.o. administration in male SD rats. The class given is in vivo. The following applies: rat; for half-life: read-out: T1/2 (terminal) (converted). As for the experimental part:
5. Pharmacokinetic Study (PK) Analysis
Pharmacokinetic analyses after single intravenous (i.v.) and two different peroral (p.o.) administrations were performed for the test compounds. 240 grams (±10 gram) male SD rats were catheterized and used in the study. The vehicle, Solutol HS-15/0.9% saline (5:95), was added to give a final concentration of 0.33 mg/ml of the compounds for i.v. application, and 0.5 or 2.0 mg/ml for p.o. applications. The volumes used for applications were 3 ml/kg i.v. and 10 ml/kg p.o. resulting in a final dose of 1 mg/kg for the intravenous dose and 5 or 20 mg/kg for the peroral doses.
Blood samples were withdrawn via the catheter at 1) predose, 5, 15, 30, 60, 120, 240, and 480 minutes for the i.v. application and 2) predose, 15, 30, 60, 120, 240, 480 and 720 minutes for the p.o. applications. Plasma was prepared by centrifugation of heparinized whole blood. Plasma samples (˜120 μl each time point, Li-Heparin, 20 IE/ml) were stored at −80° C. until HPLC-MSMS analysis.
Preparation of the Plasma Calibration Samples:
“Blank” rat plasma from untreated animals was used. Aliquots of plasma of 50 μL each were spiked with Internal Standard (ISTD) and with known amounts test compounds in order to obtain 11 plasma calibration samples in the range 0.25-4000 ng/mL.
Preparation of Plasma Samples:
To 50 μL of sample from treated animals 20 μL of internal standard were added. After mixing with 200 μL of acetonitrile, 2% HCOOH were added and each sample was vortexed for several seconds. Precipitated material was removed by centrifugation for 10 min (13200 rpm), the supernatant removed and dried under a constant flow of N2 (Porvair, MiniVap). To reconstitute the dried samples, 200 μL of [DMSO/acetonitrile/H2O, 4/4/2 (v/v/v)+2% HCOOH] were added and the sample was shaken for at least 5 minutes.
LC-MSMS Analysis of Samples:
Reconstituted samples were analysed by HPLC/MSMS on a reverse phase analytical column (BEH C18, 100×2.1 mm, 1.7 μm, Waters). Mobile phase A: H2O/acetonitrile (95:5, v:v) 0.1% formic acid, mobile phase B: Acetonitrile/H2O (95:5, v:v) 0.1% formic acid. Compounds were eluted from the column by using a gradient from 1% B to 60% B in 2.5 min.).
Pharmacokinetic Evaluation:
PK analysis was performed on mean values (generally n=3) using WinNonLin software (Version 5.3, Pharsight Corporation). The area under the curve AUC was calculated by the linear trapezoidal rule (linear interpolation, uniform weighting). AUC(t-∞) was estimated as Ct/b (b: elimination rate constant). […] the sum of AUC(0-t) and AUC(t-∞). Elimination half-life was calculated by the linear regression on at least three data points during the elimination phase. The time intervals selected for the half-life determinations were evaluated by the correlation coefficient (r^2), which should be at least above 0.85 and ideally above 0.96.
In case of i.v. administration the initial concentration at tzero was determined by extrapolation of the curve through the first two time points. Finally bioavailability after p.o. administration was calculated from the dose normalized AUC(0-∞) ration after p.o. versus i.v. administration.
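Wherever Plasma Stability 240 min mouse [% remain.] is given: sodium citrate stabilized mouse plasma, parent compound quantified by HPLC/MS/MS relative to its peak area at time zero, run in triplicate.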
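Wherever Plasma Stability T½ [min] mouse is given: sodium citrate stabilized mouse plasma, parent compound quantified by HPLC/MS/MS relative to its peak area at time zero, run in triplicate.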

T1 sequence (O43193 whole entry, species assumed): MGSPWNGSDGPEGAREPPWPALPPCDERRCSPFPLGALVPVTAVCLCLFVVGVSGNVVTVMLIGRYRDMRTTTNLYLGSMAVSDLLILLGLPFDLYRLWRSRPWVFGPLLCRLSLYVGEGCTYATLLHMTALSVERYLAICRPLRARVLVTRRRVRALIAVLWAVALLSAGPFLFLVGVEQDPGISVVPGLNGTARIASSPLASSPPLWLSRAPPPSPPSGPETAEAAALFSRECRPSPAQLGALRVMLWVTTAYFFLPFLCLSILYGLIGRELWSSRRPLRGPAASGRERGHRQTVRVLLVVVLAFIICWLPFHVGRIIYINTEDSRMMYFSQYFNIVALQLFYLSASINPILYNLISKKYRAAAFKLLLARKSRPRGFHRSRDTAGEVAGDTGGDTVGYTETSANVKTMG

`CN(C)CCCNC(=O)[C@@H]1CCC(=O)N(C)CC(=O)N2C[C@@H](NC(=O)Cc3cccc4ccccc34)C[C@H]2COc2ccc(F)cc2C(=O)N1C` [Ex. 488, (2S,11S,19aS)-N-[3-(dimethylamino)propyl]-15-fluoro-7,12-dimethyl-2-{[2-(1-naphthyl)acetyl]amino}-5,8,13-trioxo-2,3,6,7,8,9,10,11,12,13,19,19a-dodecahydro-1H,5H-pyrrolo[2,1-c] [1,4,7,12] benzoxatriazacyclopentadecine-11-carboxamide]: on Motilin Receptor, the inhibition at 10 µM was 23%.

Take `CN1CC(=O)N2C[C@@H](NC(=O)Cc3cccc4ccccc34)C[C@H]2COc2ccc(F)cc2C(=O)N(C)[C@H](C(=O)NCc2cccnc2)CCC1=O` [Ex. 497, (2S,11S,19aS)-15-fluoro-7,12-dimethyl-2-{[2-(1-naphthyl)acetyl]amino}-5,8,13-trioxo-N-(3-pyridinylmethyl)-2,3,6,7,8,9, 10,11,12,13,19,19a-dodecahydro-1H,5H-pyrrolo[2,1-c][1,4,7,12]benzoxatriazacyclo-pentadecine-11-carboxamide]: on Motilin Receptor, the “Antagonist activity [% Inhibition at 10 μM]” value was found to be 24%.

On to `CC(=O)NCCNC(=O)[C@@H]1CCC(=O)N(C)CC(=O)N2C[C@@H](NC(=O)Cc3cccc4ccccc34)C[C@H]2COc2ccc(F)cc2C(=O)N1C` [Ex. 487, (2S,11S,19aS)-N-[2-(acetylamino)ethyl]-15-fluoro-7,12-dimethyl-2-{[2-(1-naphthyl)acetyl]amino}-5,8,13-trioxo-2,3,6,7,8,9,10,11,12,13,19,19a-dodecahydro-1H,5H-pyrrolo[2,1-c] [1,4,7,12]benzoxatri-azacyclopentadecine-11-carboxamide], for which the inhibition at 10 µM on Motilin Receptor is 47%.

In turn, `COc1cccc(CC(=O)N[C@H]2C[C@H]3COc4ccc(F)cc4C(=O)N(C)[C@H](C(=O)NCCN(C)C)CCC(=O)N(C)CC(=O)N3C2)c1` [Ex. 496, (2S,11S,19aS)-N-[2-(dimethylamino)ethyl]-15-fluoro-2-{[2-{3-methoxyphenyl)acetyl]amino}-7,12-dimethyl-5,8,13-trioxo-2,3,6,7,8,9,10,11,12,13,19,19a-dodecahydro-1H,5H-pyrrolo[2,1-c] [1,4,7,12]benzoxatriazacyclopentadecine-11-carboxamide] yielded an inhibition at 10 µM on Motilin Receptor of 31%.

As to `CN(C)CCNC(=O)[C@@H]1CCC(=O)N(C)CC(=O)N2C[C@@H](NC(=O)Cc3cccc(C(F)(F)F)c3)C[C@H]2COc2ccc(F)cc2C(=O)N1C` [Ex. 495, (2S,11S,19aS)-N-[2-(dimethylamino)ethyl]-15-fluoro-7,12-dimethyl-5,8,13-trioxo-2-({2-[3-(trifluoromethyl)phenyl]acetyl}amino)-2,3,6,7,8,9,10,11,12,13,19,19a-dodecahydro-1H,5H-pyrrolo[2,1-c] [1,4,7,12] benzoxatriazacyclopentadecine-11-carboxamide], 10 µM produced 26% inhibition at Motilin Receptor.

For `CN1CCC[C@H](NC(=O)CC(C)(C)C)C(=O)N2C[C@@H](O)C[C@H]2COc2cccc(c2)C1=O` [Ex. 571, N-[(4S,6S,10S)-6-hydroxy-14-methyl-9,15-dioxo-2-oxa-8,14-diazatricyclo[14.3.1.0^4,8]icosa-1(20),16,18-trien-10-yl]-3,3-dimethylbutanamide], the Plasma Stability T½ [min] hum in “in vitro [1]” is over 240 min. Besides, in “in vitro [1]” (4 h), the “Plasma Stability 240 min hum [% remain.]” value came out at 86 % remain. The same molecule returned a Metabolic Stability T½ [min] mouse in data set [2] of over 60 min. Moreover, the “Metabolic Stability 60 min mouse [% remain.]” value in data set [2] (1 h) was 74 % remain. In data set [3], this molecule displayed a Metabolic Stability T½ [min] hum of over 60 min. In addition, the “Metabolic Stability 60 min hum [% remain.]” value in data set [3] (1 h) is recorded as 90 % remain. Further, the Plasma Stability T½ [min] mouse in the data set “in vitro [4]” is over 240 min. In “in vitro [4]” (4 h), the “Plasma Stability 240 min mouse [% remain.]” value is given as 89 % remain. In addition, the “Metabolic Stability 60 min (rat) [% remain.]” value in data set [5] (60 min) was 88 % remain. Besides, in data set [5], the “Metabolic Stability T½ [min] (rat)” value is reported as 60 (60) min. Moreover, in data set [6] (male, SD, plasma, iv, 1 mg/kg), the peak concentration (Cmax) was determined as 644 ng/mL, the Tmax worked out at 0.08 h and the half-life was 1.7 h. Further, the C0 in data set [6] (male, SD, plasma, iv, 1 mg/kg, extrapolated to tzero) was 932 ng/mL. In data set [6] (male, SD, plasma, po, 5 mg/kg), the Cmax turned out to be 340 ng/mL, the time to peak (Tmax) was determined as 0.25 h, the bioavailability is 29% and the half-life was 2.18 h. Further, in data set [6] (male, SD, plasma, po, 20 mg/kg), the maximum concentration (Cmax) was determined as 1520 ng/mL, the Tmax stood at 0.25 h, the bioavailability is 27.2% and the half-life is 2.3 h. In addition, in data set [6] (iv, 1 mg/kg), the “AUC(t-∞) dose normalized” value came to 321.32 kg·ng·h/mL/mg, the Cmax dose normalized came to 643.67 kg·ng/mL/mg and the “V (terminal)” value was found to be 7.61859 L/kg. Also, in data set [6] (po, 5 mg/kg), the “AUC(t-∞) dose normalized” value stood at 93.34 kg·ng·h/mL/mg and the Cmax dose normalized came to 68.07 kg·ng/mL/mg. Also, in data set [6] (po, 20 mg/kg), the “AUC(t-∞) dose normalized” value came to 87.49 kg·ng·h/mL/mg and the Cmax dose normalized stood at 75.83 kg·ng/mL/mg.

As a reminder, the inhibition is the relative decrease from the control value, in per cent. Low readings indicate a weak effect, high ones a strong effect. Usually Cmax stands for the highest concentration seen after dosing. The Tmax is the time from dosing to the highest level. By bioavailability is commonly meant dose-corrected exposure relative to a reference, in per cent. A lower bioavailability goes with poor availability.

Values taken from US9512139B2, “Conformationally constrained, fully synthetic macrocyclic compounds” (POLYPHOR AG, priority 2009, dated 2016).
